Measurements as given in patent US20230348394A1, “COMPOSITIONS AND METHODS FOR TREATING MUSCULAR DYSTROPHIES” (The Regents of the University of California, priority 2020, published 2023).
Structures can show the parent of a compound that is named as a salt.

Legend:
[1] = tested on: SSPN-HiBiT protein (sarcospan); test: C2C12 SSPN-HiBiT protein reporter assay (12-well and 384-well format); format: cell-based, murine; conditions: for SSPN-HiBiT, fold change over vehicle: *p<0.05
Procedure: C2C12 SSPN-HiBiT myoblasts were seeded at 25,000 cells per well in 2 ml of growth media in 12 well-plates and incubated for 3 days. Upon reaching confluency, the growth media was replaced with 2 ml of differentiation media. At day 2 of differentiation, the media on the cells was replaced with 2 ml of differentiation media containing compounds at a final concentration of 5.5 μM in 0.06% DMSO. For vehicle control-treated cells, 0.06% DMSO was added to the cells. After 48 hrs the cells were washed with PBS and frozen for 2-24 hrs. The plates containing cells were thawed on ice and 100 μl of ice-cold modified RIPA buffer containing 1% Triton X-100, 0.05% DOC, 0.05% SDS, and Halt Protease Inhibitor was added to each well. Cells were scratched, transferred into 1.5 ml tubes, and centrifuged for 20 min at 16,000×g at 4° C. The cell lysates were transferred into new tubes. DC assay was performed on cell lysates to determine protein concentration. White walled, white bottom 384-well microplates (Greiner) were prefilled with 15 μl of PBS and 15 μl of cell lysates were added to each well in triplicate. Then 30 μl Nano-Glo HiBiT Lytic Detection working solution was added to each well and incubated for 30 min at RT with shaking. The luminescence was measured on the EnVision plate reader and the signal was normalized to protein concentration and signal from vehicle-treated controls.
C2C12 SSPN-HiBiT myoblasts were seeded at 500 cells per well in 50 μl of growth media in 384-well white, clear bottom microplates (Greiner) and incubated for 3 days. Upon reaching confluency, the growth media was replaced with 50 μl of differentiation media consisting of phenol-red free DMEM with 2% horse serum (Sigma-Aldrich) using an EL406 combination washer dispenser (Biotek). At day 2 of differentiation, the media on the cells was aspirated, left with a residual volume of 10 μl, and replaced with 30 μl of fresh differentiation media. 0.5 μl of small molecule in DMSO or DMSO alone (for vehicle and positive control wells) were added to each well using a Biomek Fx (Beckman). To ensure proper mixing of the DMSO, 50 μl of additional differentiation media was added to all wells except the positive control treated wells. The final concentration of compound in each treated well was 0.5-10 μM in 0.55% DMSO and 0.55% DMSO only for vehicle. After 48 hrs of incubation, the plate was washed with phenol red-free DMEM, aspirated, and left with a residual volume of 5 μl using EL406 combination washer dispenser. After the wash, 25 μl of differentiation media containing 12 μM DRAQ5 nuclear stain was added to reach a final concentration 10 μM in each well and incubated for 15 min at 37° C. with 5% CO2. The cells were imaged using ImageXpress Micro Confocal High Content Imaging System (Molecular Devices). The nuclei count of imaged cells were determined using a custom module analysis in MetaXpress Analysis software (Molecular Devices). After imaging and analysis, the plate was aspirated, left with a residual volume of 5 μl and placed at −80° C. for 2-24 hrs. The plate was thawed at RT and 25 μl of PBS was added, followed by 30 μl of Nano-Glo HiBiT Lytic Detection working solution prepared according manufacturer recommendations. Luminescence was measured using the EnVision plate reader and the signal of each well was normalized to nuclei count and signal from vehicle-treated controls.
In order to effectively test new analogues, we created method for detecting SSPN protein in cells, e.g., SSPN-HiBiT. SSPN-HiBiT based on a murine C2C12 cell line expressing endogenous SSPN protein with an N-term fusion protein called the HiBiT, an 11 amino acid subunit of a luciferase enzyme (FIG. 10a). The SSPN-HiBiT protein is quantified through addition of substrate and a larger subunit of the luciferase enzyme to catalyze the formation of luminescent signal. […]

SSPN gene expression = SSPN gene expression in tibialis anterior after intramuscular injection in mdx mice; format: in vivo; conditions: 4 hours
Procedure: (§1) For the preliminary safety assessment of OT-9, we performed IP injections in 6 month old C57/B16 males. The mice were injected with 100 μl of vehicle (5% DMSO (Sigma), 95% PBS), 100 μl of 30 mg/kg of OT-9 in vehicle, or 100 μl of 50 mg/kg of OT-9 in vehicle (n=1 mouse per treatment). […] For assessment of activity, 20-weeks old male mdx littermates were injected in both tibialis anterior muscles with vehicle (5% DMSO, 95% PBS) or 86 μg of OT-9. Two mice were injected in both TAs with vehicle and three mice were injected in both TAs with 200 of OT-9 (9.4 mM solution containing 86 μg of OT-9). After 4 hours, the muscles were harvested and processed for gene expression analysis. For assessment of activity of OT-9m after local administration, 19-22-weeks old mdx males were injected in both tibialis anterior muscles with vehicle (5% DMSO, 95% PBS) or 3 mg/kg and 10 mg/kg of OT-9m. After 4 hours, the muscles were harvested and processed for gene expression analysis. For assessment of activity of OT-9m after systemic administration, 13-weeks old mdx males were injected subcutaneously with vehicle (4% PEG-200 in hydroxypropyl-b-cyclodextrin) or 20 mg/kg/day of OT-9m. After 13 days of treatment, the muscles were harvested and processed for gene expression analysis.
After the preliminary safety evaluation, we tested the ability of OT-9 to increase SSPN gene expression in vivo. […] Five 20-weeks old male mdx littermates were subjected to intramuscular injections in both tibialis anterior (TA) muscles. Two mice were injected in both TAs with vehicle and […] were injected with 3 mg/kg of OT-9 (molar equivalent of 9.4 mM used in the safety assessment). After 4 hours of treatment, the TAs were harvested and processed for gene expression analysis. […] After determination that OT-9 is capable of increasing SSPN gene expression in vivo, we evaluated one of its derivatives, OT-9m, for its ability to increase SSPN expression in mdx mice. OT-9m was chosen based on its improved activity in vitro compared to OT-9 (compare, Table 1, entries 1 & 14). To assess activity OT-9m in vivo after local administration, eleven 19-22 weeks old male mdx mice were subjected to intramuscular injections in both tibialis anterior (TA) muscles. Four mice were injected in both TAs with vehicle, three mice were injected with 3 mg/kg of OT-9m and four mice were injected with 10 mg/kg of OT-9m. After 4 hours of treatment, the TAs were harvested and processed for gene expression analysis.

SSPN transcript = test: SSPN gene expression after systemic (subcutaneous) treatment of mdx mice; format: in vivo; conditions: 20 mg/kg daily subcutaneous, 13 days, quadriceps
Procedure: as §1, with “For assessment of activity of OT-9m after systemic administration, 13-weeks old mdx males were injected subcutaneously with vehicle (4% PEG-200 in hydroxypropyl-b-cyclodextrin) or 20 mg/kg/day of OT-9m. After 13 days of treatment, the muscles were harvested and processed for gene expression analysis.” left out
Followed by local administration, we evaluated ability of OT-9m to enhance SSPN expression in mdx mice after systemic treatment. […] We determined that mice overexpressing sarcospan by 1.5-fold were not rescued, while mice overexpressing sarcospan by 3-fold were rescued.

| Compound | SSPN-HiBiT, fold change over vehicle ([1]; Table 1) | SSPN-HiBiT, fold change over vehicle ([1]; Table 2) | other results |
| --- | --- | --- | --- |
| CCN(CC)c1ccc2cc(C(=O)Nc3ccc(C(=O)N4CCCCCC4)cc3)cnc2c1 | 1.62* fold change over vehicle | – | – |
| CCN(CC)c1ccc2cc(C(=O)Nc3ccc(C(=O)N4CCCOCC4)cc3)cnc2c1 | 1.3* fold change over vehicle | – | – |
| CCN(CC)c1ccc2cc(C(=O)Nc3nnc(C(=O)N4CCOCC4)[nH]3)cnc2c1 | 1.34* fold change over vehicle | – | – |
| CCN(CC)c1ccc2cc(C(=O)Nc3ccc(C(=O)N4CCN(C)CC4)cc3)cnc2c1 | 1.47* fold change over vehicle | – | – |
| CCN(CC)C(=O)c1ccc(NC(=O)c2cnc3cc(N(CC)CC)ccc3c2)cc1 | 1.75* fold change over vehicle | – | – |
| COc1ccc2nc(C)c(C(=O)Nc3ccc(C(=O)N4CCCOCC4)cc3)cc2c1 | 1.22* fold change over vehicle | – | – |
| COc1ccc2[nH]c(=O)c(C(=O)Nc3ccc(C(=O)N4CCCCCC4)cc3)cc2c1 | 1.03 fold change over vehicle | – | – |
| CCN(CC)C(=O)c1ccc(NC(=O)c2cc3cc(OC)ccc3[nH]c2=O)cc1 | 1.51* fold change over vehicle | – | – |
| COc1ccc2c(c1)CC(C(=O)Nc1ccc(C(=O)N3CCN(C)CC3)cc1)C(=O)N2 (stereo not drawn) | 1.46* fold change over vehicle | – | – |
| Cc1cc2cc(C#N)c(OCC(=O)c3ccc(F)cc3F)nc2cc1C | – | 1.22* fold change over vehicle | – |
| Cc1cc2cc(C#N)c(S(=O)(=O)CC(=O)c3ccc(F)cc3)nc2cc1C | – | 1.23* fold change over vehicle | – |
| COc1ccc(C(=O)COc2nc3cc(C)c(C)cc3cc2C#N)cc1 | – | 1.27* fold change over vehicle | – |
| Cc1cc2cc(C#N)c(OCC(=O)c3ccc(O)cc3)nc2cc1C | – | 1.21 fold change over vehicle | – |
| Cc1cc(C)c(C#N)c(OCC(=O)c2ccc(N(C)C)cc2)n1 [2-(2-(4-(dimethylamino)phenyl)-2-oxoethoxy)-4,6-dimethylnicotinonitrile] | – | 1.09* fold change over vehicle | – |
| Cc1cc2cc(C#N)c(OCC(=O)c3ccc(N(C)C)cc3)nc2cc1C [2-(2-(4-(dimethylamino)phenyl)-2-oxoethoxy)-6,7-dimethylquinoline-3-carbonitrile] | – | 1.04* fold change over vehicle | – |
| Cc1cc(C)c2nc(OCC(=O)c3ccc(N(C)C)cc3)c(C#N)cc2c1 [2-(2-(4-(dimethylamino)phenyl)-2-oxoethoxy)-6,8-dimethylquinoline-3-carbonitrile] | – | 1.3* fold change over vehicle | – |
| Cc1cc2cc(C#N)c(SCC(=O)c3ccc(F)cc3)nc2cc1C [2-((2-(4-fluorophenyl)-2-oxoethyl)thio)-6,7-dimethylquinoline-3-carbonitrile] | – | 1.48* fold change over vehicle | – |
| O=C1Nc2ccc(I)cc2/C1=C/c1cc(Br)c(O)c(Br)c1 [GW5074, reference compound] | – | – | increase in SSPN-HiBiT levels ([1]; SSPN-HiBiT C2C12 myotubes, 5 μM): 1.35 fold |
| Nc1ccc2ncc(C(=O)Nc3ccc(C(=O)N4CCCOCC4)cc3)cc2c1 [N-(4-(1,4-oxazepane-4-carbonyl)phenyl)-6-aminoquinoline-3-carboxamide hydrochloride] | 1.09* fold change over vehicle | – | – |
| COc1ccc2nc(C)c(C(=O)Nc3ccc(C(=O)N4CCCCCC4)cc3)cc2c1 [N-(4-(azepane-1-carbonyl)phenyl)-6-methoxy-2-methylquinoline-3-carboxamide] | 1.4* fold change over vehicle | – | – |
| CCN(CC)C(=O)c1ccc(NC(=O)c2cc3ccccc3nc2C)cc1 [N-(4-(diethylcarbamoyl)phenyl)-2-methylquinoline-3-carboxamide] | 1.08* fold change over vehicle | – | – |
| CCN(CC)C(=O)c1ccc(NC(=O)c2c(C)c3ccccc3[nH]c2=O)cc1 [N-(4-(diethylcarbamoyl)phenyl)-4-methyl-2-oxo-1,2-dihydroquinoline-3-carboxamide] | 1.21* fold change over vehicle | – | – |
| CCN(CC)C(=O)c1ccc(NC(=O)c2cc3ccc(F)cc3[nH]c2=O)cc1 [N-(4-(diethylcarbamoyl)phenyl)-7-fluoro-2-oxo-1,2-dihydroquinoline-3-carboxamide] | 1.45* fold change over vehicle | – | – |
| COc1ccc2[nH]c(=O)c(C(=O)Nc3ccc(C(=O)N4CCCOCC4)cc3)cc2c1 [OT-9m, N-(4-(1,4-oxazepane-4-carbonyl)phenyl)-6-methoxy-2-oxo-1,2-dihydroquinoline-3-carboxamide] | 2.4* fold change over vehicle | – | SSPN gene expression in tibialis anterior (SSPN gene expression; 3 mg/kg and 10 mg/kg intramuscular): increased SSPN gene expression; adverse effects after local injection (SSPN gene expression; OT-9m 3 mg/kg and 10 mg/kg intramuscular, both TA): No adverse effects; increase of SSPN transcript (SSPN transcript): 2 fold |
